Experimental data taken from ChEMBL document CHEMBL2073761, “Celastraceae sesquiterpenes as a new class of modulators that bind specifically to human P-glycoprotein and reverse cellular multidrug resistance” (Cancer Res, 2004).

Molecular target: ATP-dependent translocase ABCB1 (Homo sapiens, UniProt P08183)
Assay: TP_TRANSPORTER: efflux of Tetramethylrosamine in membrane vesicles from reconstituted PMPC proteoliposomes containing P-glycoprotein
Assay type: functional, cell membranes, Membrane vesicle from reconstituted proteoliposome

Sequence of ATP-dependent translocase ABCB1 (P08183 whole entry): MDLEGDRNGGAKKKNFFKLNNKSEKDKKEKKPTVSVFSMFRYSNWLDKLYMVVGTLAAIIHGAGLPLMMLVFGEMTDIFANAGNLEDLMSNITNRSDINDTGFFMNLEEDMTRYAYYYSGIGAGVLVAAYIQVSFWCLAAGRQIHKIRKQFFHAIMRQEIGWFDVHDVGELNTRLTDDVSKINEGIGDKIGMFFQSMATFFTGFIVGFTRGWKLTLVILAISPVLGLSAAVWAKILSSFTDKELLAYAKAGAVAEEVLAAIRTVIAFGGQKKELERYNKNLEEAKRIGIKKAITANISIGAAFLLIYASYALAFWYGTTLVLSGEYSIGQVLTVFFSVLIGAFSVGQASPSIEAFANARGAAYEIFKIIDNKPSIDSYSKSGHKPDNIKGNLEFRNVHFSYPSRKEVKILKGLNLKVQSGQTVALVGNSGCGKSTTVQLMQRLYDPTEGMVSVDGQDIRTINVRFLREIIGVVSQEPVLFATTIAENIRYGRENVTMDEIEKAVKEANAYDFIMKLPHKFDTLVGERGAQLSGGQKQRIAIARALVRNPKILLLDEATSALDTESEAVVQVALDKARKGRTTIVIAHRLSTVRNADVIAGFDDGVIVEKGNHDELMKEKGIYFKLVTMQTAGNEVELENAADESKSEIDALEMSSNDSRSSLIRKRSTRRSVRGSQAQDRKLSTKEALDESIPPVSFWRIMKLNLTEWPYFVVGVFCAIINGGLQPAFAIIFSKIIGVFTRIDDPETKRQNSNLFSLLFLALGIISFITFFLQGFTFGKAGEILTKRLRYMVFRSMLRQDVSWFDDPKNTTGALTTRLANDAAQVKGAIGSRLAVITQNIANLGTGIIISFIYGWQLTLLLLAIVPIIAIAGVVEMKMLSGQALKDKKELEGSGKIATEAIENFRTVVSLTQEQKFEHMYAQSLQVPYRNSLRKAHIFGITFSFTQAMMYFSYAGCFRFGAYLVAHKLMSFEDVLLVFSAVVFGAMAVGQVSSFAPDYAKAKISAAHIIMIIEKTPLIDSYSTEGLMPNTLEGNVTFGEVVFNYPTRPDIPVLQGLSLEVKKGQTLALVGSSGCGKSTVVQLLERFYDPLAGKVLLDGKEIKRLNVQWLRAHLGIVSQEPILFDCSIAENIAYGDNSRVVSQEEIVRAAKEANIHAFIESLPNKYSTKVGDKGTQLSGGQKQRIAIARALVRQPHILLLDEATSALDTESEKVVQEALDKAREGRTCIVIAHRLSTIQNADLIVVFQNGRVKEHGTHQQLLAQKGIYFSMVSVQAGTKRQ

## CN(C)c1ccc2c(-c3ccc(CCl)cc3)c3ccc(=[N+](C)C)cc-3oc2c1.[Br-] [TETRAMETHYLROSAMINE]
  Activity: inhibitor [+]
